US5840684A, “Glycopeptide antibiotic derivatives” (Eli Lilly and Company, priority 1995, dated 1998)
Converted amounts (≈) assume the structure as drawn.

Key:
[1] = tested on: Entercoccus faecium 180-1; assay: broth micro-dilution MIC; assay type: cell-based
Protocol: (§1) The MIC's were determined using a standard broth micro-dilution assay.

[2] = tested on: Streptococcus pyogenes C203; assay: broth micro-dilution MIC; assay type: cell-based
Protocol: as §1

[3] = tested on: Staphylococcus aureus X778; assay: broth micro-dilution MIC; assay type: cell-based
Protocol: as §1

[4] = tested on: Staphylococcus aureus X400; assay: broth micro-dilution MIC; assay type: cell-based
Protocol: as §1

[5] = tested on: Entercoccus faecium 276; assay: broth micro-dilution MIC; assay type: cell-based
Protocol: as §1

[6] = tested on: Staphylococcus aureus SA1199; assay: broth micro-dilution MIC; assay type: cell-based
Protocol: as §1

[7] = tested on: vancomycin-resistant enterococci; assay: broth micro-dilution, mean geometric MIC; assay type: cell-based, Enterococcus faecium and Enterococcus faecalis; conditions: enterococci, 24-hour incubation
[8] = tested on: Streptococcus pneumoniae; assay: mouse protection, experimentally-induced infection; assay type: in vivo; conditions: mice infected with Streptococcus pneumoniae, two doses
[9] = tested on: Leuconostoc lactis; assay: agar dilution MIC, lactic acid bacteria; assay type: cell-based; conditions: Leuconostoc lactis (mean of 2), brain-heart infusion agar
[10] = tested on: Streptococcus pyogenes; assay: mouse protection, experimentally-induced infection; assay type: in vivo; conditions: mice infected with Streptococcus pyogenes, two doses
[11] = tested on: Staphylococcus aureus S13E; assay type: cell-based
Protocol: as §1

[12] = tested on: Staphylococcus aureus SA1199B; assay type: cell-based
Protocol: as §1

[13] = tested on: vancomycin-susceptible enterococci; assay: broth micro-dilution, mean geometric MIC; assay type: cell-based, Enterococcus faecium and Enterococcus faecalis; conditions: enterococci, 24-hour incubation
[14] = tested on: Pediococcus pentosaceus; assay: agar dilution MIC, lactic acid bacteria; assay type: cell-based; conditions: Pediococcus pentosaceus (mean of 2), brain-heart infusion agar
[15] = tested on: Enterococcus gallinarum 245; assay: broth micro-dilution MIC; assay type: cell-based; conditions: Enterococcus gallinarum 245
Protocol: (§2) The formula I compounds have in vitro and in vivo activity against Gram-positive pathogenic bacteria. The MIC's were determined using a standard broth micro-dilution assay.

[16] = tested on: Staphylococcus haemolyticus 415; assay: broth micro-dilution MIC; assay type: cell-based
Protocol: as §2

[17] = tested on: Staphylococcus haemolyticus 105; assay: broth micro-dilution MIC; assay type: cell-based
Protocol: as §2

[18] = tested on: Streptococcus pneumoniae P1; assay: broth micro-dilution MIC; assay type: cell-based
Protocol: as §2

[19] = tested on: Entercoccus faecium 2041; assay: broth micro-dilution MIC; assay type: cell-based; conditions: Entercoccus faecium 2041
Protocol: as §2

[20] = tested on: Entercoccus faecium 180; assay: broth micro-dilution MIC; assay type: cell-based; conditions: Entercoccus faecium 180
Protocol: as §2

[21] = tested on: Lactobacillus confusus; assay: agar dilution MIC, lactic acid bacteria; assay type: cell-based; conditions: Lactobacillus confusus, brain-heart infusion agar
[22] = tested on: Stapylococcus aureus; assay: mouse protection, experimentally-induced infection; assay type: in vivo; conditions: mice infected with Stapylococcus aureus, two doses
[23] = tested on: Leuconostoc mesenteroides; assay: agar dilution MIC, lactic acid bacteria; assay type: cell-based; conditions: Leuconostoc mesenteroides (mean of 4), brain-heart infusion agar
[24] = tested on: Pediococcus acidilacti; assay: agar dilution MIC, lactic acid bacteria; assay type: cell-based; conditions: Pediococcus acidilacti (mean of 10), brain-heart infusion agar
[25] = tested on: Leuconostoc citreum; assay: agar dilution MIC, lactic acid bacteria; assay type: cell-based; conditions: brain-heart infusion agar
[26] = tested on: Staphylococcus aureus 491; assay: broth micro-dilution MIC; assay type: cell-based
Protocol: as §1

[27] = tested on: Staphylococcus aureus 446; assay: broth micro-dilution MIC; assay type: cell-based
Protocol: as §1

[28] = tested on: Staphylococcus aureus 447; assay: broth micro-dilution MIC; assay type: cell-based
Protocol: as §1

[29] = tested on: Staphylococcus aureus SA1199A; assay: broth micro-dilution MIC; assay type: cell-based
Protocol: as §1

[30] = tested on: Staphylococcus aureus 489; assay: broth micro-dilution MIC; assay type: cell-based
Protocol: as §1

[31] = tested on: Leuconostoc pseudomesenteroides; assay: agar dilution MIC, lactic acid bacteria; assay type: cell-based; conditions: brain-heart infusion agar
[32] = tested on: Staphylococcus epidermidis 270; assay: broth micro-dilution MIC; assay type: cell-based
Protocol: as §2

SMILES	MIC [1]	MIC [2]	MIC [4]	MIC [5]	MIC [6]	mean geometric MIC, Vancomycin Resistant Strains [7]	ED50 [8]	MIC [9]	ED50 [10]	MIC [11]	mean geometric MIC, Vancomycin Sensitive Strains [13]	MIC [14]	MIC [15]	MIC [16]	MIC [17]	MIC [18]	MIC [19]	ED50 [22]	MIC [23]	MIC [24]	also measured
CNC(CC(C)C)C(=O)NC1C(=O)NC(CC(N)=O)C(=O)NC2C(=O)NC3C(=O)NC(C(=O)NC(C(=O)O)c4cc(O)cc(O)c4-c4cc3ccc4O)C(OC3CC(C)(N)C(O)C(C)O3)c3ccc(c(Cl)c3)Oc3cc2cc(c3OC2OC(CO)C(O)C(O)C2OC2CC(C)(NCc3cccc4c3oc3ccccc34)C(O)C(C)O2)Oc2ccc(cc2Cl)C1O (centres unmarked) [Compound 39]	≤ 0.06 µg/mL	≤ 0.06 µg/mL	≤ 0.06 µg/mL	≤ 0.06 µg/mL	≤ 0.06 µg/mL	1.2 µg/mL	< 0.031 mg/kg/2	32 µg/mL (≈ 18.1 µM)	0.045 mg/kg/2	≤ 0.06 µg/mL	0.09 µg/mL	32 µg/mL (≈ 18.1 µM)	≤ 0.06 µg/mL	4 µg/mL (≈ 2.26 µM)	2 µg/mL (≈ 1.13 µM)	≤ 0.06 µg/mL	≤ 0.06 µg/mL	0.1 mg/kg/2	32 µg/mL (≈ 18.1 µM)	26 µg/mL (≈ 14.7 µM)	MIC [3]: ≤ 0.06 µg/mL; MIC [12]: ≤ 0.06 µg/mL; MIC [20]: 0.5 µg/mL (≈ 0.282 µM); MIC [21]: 32 µg/mL (≈ 18.1 µM)
CNC(CC(C)C)C(=O)NC1C(=O)NC(CC(N)=O)C(=O)NC2C(=O)NC3C(=O)NC(C(=O)NC(C(=O)O)c4cc(O)cc(O)c4-c4cc3ccc4O)C(OC3CC(C)(N)C(O)C(C)O3)c3ccc(c(Cl)c3)Oc3cc2cc(c3OC2OC(CO)C(O)C(O)C2OC2CC(C)(NCc3ccc4ccccc4c3)C(O)C(C)O2)Oc2ccc(cc2Cl)C1O (centres unmarked) [Compound 1]	≤ 0.06 µg/mL	≤ 0.06 µg/mL	≤ 0.06 µg/mL	≤ 0.06 µg/mL	≤ 0.06 µg/mL	0.25 µg/mL	0.025 mg/kg/2	23 µg/mL (≈ 13.3 µM)	0.052 mg/kg/2	0.125 µg/mL (≈ 0.0721 µM)	0.0061 µg/mL	23 µg/mL (≈ 13.3 µM)	4 µg/mL (≈ 2.31 µM)	4 µg/mL (≈ 2.31 µM)	4 µg/mL (≈ 2.31 µM)	≤ 0.06 µg/mL	0.125 µg/mL (≈ 0.0721 µM)	0.086 mg/kg/2		18 µg/mL (≈ 10.4 µM)	MIC [25]: > 128 µg/mL; MIC [26]: 2 µg/mL (≈ 1.15 µM); MIC [27]: ≤ 0.06 µg/mL; MIC [28]: ≤ 0.06 µg/mL; MIC [29]: ≤ 0.06 µg/mL; MIC [3]: 0.125 µg/mL (≈ 0.0721 µM); MIC [30]: ≤ 0.06 µg/mL; MIC [20]: 0.5 µg/mL (≈ 0.289 µM); MIC [31]: > 128 µg/mL
CNC(CC(C)C)C(=O)NC1C(=O)NC(CC(N)=O)C(=O)NC2C(=O)NC3C(=O)NC(C(=O)NC(C(=O)O)c4cc(O)cc(O)c4-c4cc3ccc4O)C(OC3CC(C)(N)C(O)C(C)O3)c3ccc(c(Cl)c3)Oc3cc2cc(c3OC2OC(CO)C(O)C(O)C2OC2CC(C)(NCc3ccc(Sc4ccccc4)cc3)C(O)C(C)O2)Oc2ccc(cc2Cl)C1O (centres unmarked) [Compound 108]	≤ 0.06 µg/mL	≤ 0.06 µg/mL	2 µg/mL (≈ 1.12 µM)	0.5 µg/mL (≈ 0.279 µM)	2 µg/mL (≈ 1.12 µM)	0.84 µg/mL	0.041 mg/kg/2	8.0 µg/mL (≈ 4.47 µM)	0.046 mg/kg/2	1 µg/mL (≈ 0.558 µM)	0.04 µg/mL	23 µg/mL (≈ 12.8 µM)	≤ 0.06 µg/mL	1 µg/mL (≈ 0.558 µM)	2 µg/mL (≈ 1.12 µM)	≤ 0.06 µg/mL	≤ 0.06 µg/mL		10 µg/mL (≈ 5.58 µM)	12 µg/mL (≈ 6.7 µM)	MIC [27]: 2 µg/mL (≈ 1.12 µM); MIC [28]: 0.5 µg/mL (≈ 0.279 µM); MIC [29]: ≤ 0.06 µg/mL; MIC [12]: 2 µg/mL (≈ 1.12 µM); MIC [21]: 16 µg/mL (≈ 8.93 µM); MIC [31]: 32 µg/mL (≈ 17.9 µM)
CNC(CC(C)C)C(=O)NC1C(=O)NC(CC(N)=O)C(=O)NC2C(=O)NC3C(=O)NC(C(=O)NC(C(=O)O)c4cc(O)cc(O)c4-c4cc3ccc4O)C(OC3CC(C)(N)C(O)C(C)O3)c3ccc(c(Cl)c3)Oc3cc2cc(c3OC2OC(CO)C(O)C(O)C2OC2CC(C)(NCc3ccc(OC(F)(F)F)cc3)C(O)C(C)O2)Oc2ccc(cc2Cl)C1O (centres unmarked) [Compound 6]	≤ 0.06 µg/mL	≤ 0.06 µg/mL		≤ 0.06 µg/mL		1.2 µg/mL	0.021 mg/kg/2	8.0 µg/mL (≈ 4.53 µM)	0.013 mg/kg/2		0.14 µg/mL	8.0 µg/mL (≈ 4.53 µM)	≤ 0.06 µg/mL	0.5 µg/mL (≈ 0.283 µM)	0.5 µg/mL (≈ 0.283 µM)	≤ 0.06 µg/mL	≤ 0.06 µg/mL	0.15 mg/kg/2	9.5 µg/mL (≈ 5.38 µM)	4.3 µg/mL (≈ 2.43 µM)	MIC [27]: 0.5 µg/mL (≈ 0.283 µM); MIC [28]: 0.5 µg/mL (≈ 0.283 µM); MIC [29]: ≤ 0.06 µg/mL; MIC [21]: 16 µg/mL (≈ 9.06 µM); MIC [31]: 16 µg/mL (≈ 9.06 µM)
CNC(CC(C)C)C(=O)NC1C(=O)NC(CC(N)=O)C(=O)NC2C(=O)NC3C(=O)NC(C(=O)NC(C(=O)O)c4cc(O)cc(O)c4-c4cc3ccc4O)C(OC3CC(C)(N)C(O)C(C)O3)c3ccc(c(Cl)c3)Oc3cc2cc(c3OC2OC(CO)C(O)C(O)C2OC2CC(C)(NCc3cc(OCc4ccccc4)ccc3OC)C(O)C(C)O2)Oc2ccc(cc2Cl)C1O (centres unmarked) [Compound 51]	≤ 0.06 µg/mL		≤ 0.06 µg/mL	≤ 0.06 µg/mL	0.5 µg/mL (≈ 0.275 µM)	0.84 µg/mL	0.036 mg/kg/2		0.057 mg/kg/2	0.5 µg/mL (≈ 0.275 µM)	0.22 µg/mL	91 µg/mL (≈ 50 µM)		1 µg/mL (≈ 0.55 µM)	0.5 µg/mL (≈ 0.275 µM)	≤ 0.06 µg/mL	≤ 0.06 µg/mL	0.16 mg/kg/2	76 µg/mL (≈ 41.8 µM)	87 µg/mL (≈ 47.8 µM)	MIC [25]: > 128 µg/mL; MIC [28]: 0.5 µg/mL (≈ 0.275 µM); MIC [29]: ≤ 0.06 µg/mL; MIC [3]: 0.5 µg/mL (≈ 0.275 µM); MIC [30]: ≤ 0.06 µg/mL; MIC [12]: 1 µg/mL (≈ 0.55 µM); MIC [32]: 0.5 µg/mL (≈ 0.275 µM); MIC [20]: 0.5 µg/mL (≈ 0.275 µM); MIC [31]: > 128 µg/mL
